Data reported in patent US20260274832A1, “COMPOUNDS AND THEIR USE IN TREATING CANCER” (ASTRAZENECA AB, priority 2023, published 2026).

Key:
[1] = target: T1, AR (AR-full length) in LNCaP cells (Homo sapiens, UniProt P10275, T878A); test: LNCaP Androgen Receptor Imaging Assay (immunofluorescence of endogenous nuclear AR); type: cell-based; details: 24 h incubation; for DC50: concentration giving 50% of maximum degradation of AR per curve fit, single experiment or average of two or more; for Dmax: LNCaP; for Dmax / LNCaP AR Degradation Dmax: maximum degradation observed, normalized as % of positive control (prior art AR PROTAC at 3 μM)
T1 construct: the prostate cancer cell line LNCaP (expressing AR-full length); endogenous in cells; host or cells: LNCaP
T1 sequence (P10275 whole entry T878A): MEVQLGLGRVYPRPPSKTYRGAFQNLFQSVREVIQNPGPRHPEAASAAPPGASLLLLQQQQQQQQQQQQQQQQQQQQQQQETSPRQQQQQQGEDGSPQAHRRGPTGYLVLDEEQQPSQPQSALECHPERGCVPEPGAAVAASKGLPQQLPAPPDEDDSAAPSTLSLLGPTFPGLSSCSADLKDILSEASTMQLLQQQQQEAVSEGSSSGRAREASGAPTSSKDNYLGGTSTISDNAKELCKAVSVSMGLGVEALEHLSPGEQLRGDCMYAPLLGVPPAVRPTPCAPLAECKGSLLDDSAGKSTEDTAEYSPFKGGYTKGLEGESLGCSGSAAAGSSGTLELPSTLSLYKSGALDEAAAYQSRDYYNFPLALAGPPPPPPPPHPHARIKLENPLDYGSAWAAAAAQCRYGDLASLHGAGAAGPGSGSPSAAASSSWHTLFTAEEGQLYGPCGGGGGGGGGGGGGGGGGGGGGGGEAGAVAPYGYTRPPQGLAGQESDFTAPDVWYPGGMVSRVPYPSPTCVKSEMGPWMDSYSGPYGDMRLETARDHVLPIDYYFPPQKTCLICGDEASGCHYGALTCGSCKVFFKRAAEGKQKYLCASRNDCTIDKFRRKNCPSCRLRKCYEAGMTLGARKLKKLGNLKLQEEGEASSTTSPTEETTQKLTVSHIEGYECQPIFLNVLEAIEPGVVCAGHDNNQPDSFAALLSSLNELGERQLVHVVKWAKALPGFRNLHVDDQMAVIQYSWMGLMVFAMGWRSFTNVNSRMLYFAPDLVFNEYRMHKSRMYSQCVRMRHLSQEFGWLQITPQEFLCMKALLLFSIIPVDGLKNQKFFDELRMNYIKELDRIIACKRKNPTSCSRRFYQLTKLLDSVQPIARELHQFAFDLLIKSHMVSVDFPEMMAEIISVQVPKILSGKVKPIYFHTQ
T1 sequence (Q96SW2 whole entry partner): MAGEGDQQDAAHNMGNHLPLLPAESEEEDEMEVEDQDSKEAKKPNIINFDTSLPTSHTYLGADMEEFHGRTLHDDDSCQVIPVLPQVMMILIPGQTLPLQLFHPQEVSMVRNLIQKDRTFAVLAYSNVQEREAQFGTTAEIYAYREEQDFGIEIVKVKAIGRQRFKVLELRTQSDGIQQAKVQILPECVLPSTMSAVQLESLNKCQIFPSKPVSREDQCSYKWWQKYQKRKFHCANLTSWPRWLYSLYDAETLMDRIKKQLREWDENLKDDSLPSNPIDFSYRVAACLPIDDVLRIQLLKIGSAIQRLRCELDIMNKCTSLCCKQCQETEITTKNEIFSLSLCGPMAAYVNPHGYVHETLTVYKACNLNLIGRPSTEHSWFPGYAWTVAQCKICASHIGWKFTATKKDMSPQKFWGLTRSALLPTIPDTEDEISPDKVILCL
How it was run: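 LNCaP cells (12,000/well) received a 12-point compound dose series (0.3% DMSO) for 24 h at 37° C., then were PFA-fixed and stained for AR (AR441) and nuclei (DRAQ5). Nuclear AR was quantified by imaging, normalized to a 3 μM AR PROTAC control; DC50 and Dmax came from Hill/bell curve fits.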

[2] = target: T2, AR (L702H) in LNCaP cells (Homo sapiens, UniProt P10275, L702H/T878A); test: LNCaP Androgen Receptor L702H Imaging Assay (LNCaP cells engineered by CRISPR/Cas9); type: cell-based; details: LNCaP cells with AR L702H mutation, 24 h incubation; for DC50: concentration giving 50% of maximum degradation of AR (L702H) per curve fit; for Dmax: LNCaP
T2 construct: engineered to introduce the mutation L702H into the AR gene using CRISPR/Cas9; endogenous in cells; host or cells: LNCaP cells edited by CRISPR/Cas9 at the AR gene
T2 sequence (P10275 whole entry L702H/T878A): as the sequence (P10275 whole entry T878A) above, with L702H counted along it
T2 sequence (Q96SW2 whole entry partner): as the sequence (Q96SW2 whole entry partner) above
How it was run: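 CRISPR-engineered LNCaP cells carrying AR L702H were treated 24 h at 37 °C with a 12-point compound dose response (0.3% DMSO), then fixed and immunostained for AR with DRAQ5 nuclear counterstain. Nuclear AR was quantified by imaging, normalized to positive control; DC50 and Dmax came from Hill or bell-shaped fits.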

[3] = maximum degradation observed, normalized as % of positive control

Row | DC50 [1] | Dmax [1] | DC50 [2] | Dmax [2, 3] | LNCaP AR Degradation Dmax [1] | LNCaP AR (L702H) Degradation Dmax [2, 3] | SMILES
1 | 4 nM | 103% | 8 nM | 97% |  |  | N#Cc1n[nH]c2c(N3CCC[C@@H](c4ccc(N5CCC(CN6CCN(c7ccc8c(c7)CN(C7CCC(=O)NC7=O)C8=O)CC6)CC5)cc4)C3)ccc(F)c12 (stereo partly drawn) [Example 133, 7-[(3S)-3-{4-[4-({4-[2-(2,6-Dioxopiperidin-3-yl)-1-oxo-2,3-dihydro-1H-isoindol-5-yl]piperazin-1-yl}methyl)piperidin-1-yl]phenyl}piperidin-1-yl]-4-fluoro-1H-indazole-3-carbonitrile]
2 | 2 nM | 106% | 2 nM | 107% |  |  | Cc1cc(N2CCC(CN3CCC(n4ccc5c(N6CCC(=O)NC6=O)cccc54)CC3)CC2)ccc1C(=O)NC1CCN(c2ccc(Cl)c3c(C#N)c[nH]c23)CC1 [Example 178, N-[1-(4-Chloro-3-cyano-1H-indol-7-yl)piperidin-4-yl]-4-[4-({4-[4-(2,4-dioxo-1,3-diazinan-1-yl)-1H-indol-1-yl]piperidin-1-yl}methyl)piperidin-1-yl]-2-methylbenzamide]
3 | 4 nM | 102% | 9 nM | 93% |  |  | N#Cc1c[nH]c2c(N3CCC(c4cnc(N5CCC(CN6CCC(n7ccc8c(N9CCC(=O)NC9=O)cccc87)CC6)CC5)nc4)CC3)ccc(Cl)c12 [Example 125, 4-Chloro-7-(4-{2-[4-({4-[4-(2,4-dioxo-1,3-diazinan-1-yl)-1H-indol-1-yl]piperidin-1-yl}methyl)piperidin-1-yl]pyrimidin-5-yl}piperidin-1-yl)-1H-indole-3-carbonitrile]
4 | 6 nM | 97% | 15 nM | 87% |  |  | N#Cc1c[nH]c2c(N3CCC(c4ccc(OC5CCN(CC6CCN(c7ccc8c(c7)CN(C7CCC(=O)NC7=O)C8=O)CC6)CC5)cc4)CC3)ccc(F)c12 (centres unmarked) [Example 101, 7-[4-(4-{[1-({1-[2-(2,6-Dioxopiperidin-3-yl)-1-oxo-2,3-dihydro-1H-isoindol-5-yl]piperidin-4-yl}methyl)piperidin-4-yl]oxy}phenyl)piperidin-1-yl]-4-fluoro-1H-indole-3-carbonitrile]
5 | 33 nM | 99% | 34 nM | 103% |  |  | N#Cc1c[nH]c2c(N3CCC(c4ccc(N5CCC(CN6CCN(c7ccc8c(c7)C(=O)N(C7CCC(=O)NC7=O)C8=O)CC6)CC5)cc4)CC3)ccc(Cl)c12 (centres unmarked) [Example 55, 4-Chloro-7-(4-{4-[4-({4-[2-(2,6-dioxopiperidin-3-yl)-1,3-dioxo-2,3-dihydro-1H-isoindol-5-yl]piperazin-1-yl}methyl)piperidin-1-yl]phenyl}piperidin-1-yl)-1H-indole-3-carbonitrile]
6 | 7 nM | 96% | 5 nM | 103% |  |  | N#Cc1n[nH]c2c(N3CCC[C@@H](c4ccc(N5CCC(CN6CCN(c7ccc8c(c7)CN(C7CCC(=O)NC7=O)C8=O)CC6)CC5)cc4)C3)ccc(Cl)c12 (stereo partly drawn) [Example 10, 4-Chloro-7-[(3S)-3-{4-[4-({4-[2-(2,6-dioxopiperidin-3-yl)-1-oxo-2,3-dihydro-1H-isoindol-5-yl]piperazin-1-yl}methyl)piperidin-1-yl]phenyl}piperidin-1-yl]-1H-indazole-3-carbonitrile]
7 | 6 nM |  | 5 nM |  | 96% | 106% | N#Cc1c[nH]c2c(N3CCC(c4ccc(N5CCC(CN6CCN(c7ccc8c(c7)CN(C7CCC(=O)NC7=O)C8=O)CC6)CC5)cc4)CC3)ccc(F)c12 (single isomer, unassigned) [Example 4, 7-(4-{4-[4-({4-[2-(2,6-Dioxopiperidin-3-yl)-1-oxo-2,3-dihydro-1H-isoindol-5-yl]piperazin-1-yl}methyl)piperidin-1-yl]phenyl}piperidin-1-yl)-4-fluoro-1H-indole-3-carbonitrile]
8 | 6 nM | 107% | 9 nM | 112% |  |  | Cn1c(C2CCN(CC3CCN(c4ccc([C@@H]5CCCN(c6ccc(Cl)c7c(C#N)n[nH]c67)C5)cc4)CC3)CC2)cc2ccc(N3CCC(=O)NC3=O)cc21 [Example 14, 4-Chloro-7-[(3S)-3-{4-[4-({4-[6-(2,4-dioxo-1,3-diazinan-1-yl)-1-methyl-1H-indol-2-yl]piperidin-1-yl}methyl)piperidin-1-yl]phenyl}piperidin-1-yl]-1H-indazole-3-carbonitrile]
9 | 52 nM | 86% | 44 nM | 106% |  |  | Cc1cc(N2CCC(=O)NC2=O)cc2ccn(C3CCN(CC4CCN(c5ccc(C6CCN(c7ccc(Cl)c8c(C#N)c[nH]c78)CC6)cc5)CC4)CC3)c12 [Example 102, 4-Chloro-7-(4-{4-[4-({4-[5-(2,4-dioxo-1,3-diazinan-1-yl)-7-methyl-1H-indol-1-yl]piperidin-1-yl}methyl)piperidin-1-yl]phenyl}piperidin-1-yl)-1H-indole-3-carbonitrile]
10 | > 3000 nM |  | 17 nM | 87% |  |  | COc1cc(N2CCN(CC3CCN(c4ccc(C5CCN(c6ccc(Cl)c7c(C#N)cn(C)c67)CC5)cc4)CC3)CC2)cc2c1C(=O)N(C1CCC(=O)NC1=O)C2 (centres unmarked) [Example 112, 4-chloro-7-(4-{4-[4-({4-[2-(2,6-dioxopiperidin-3-yl)-7-methoxy-1-oxo-2,3-dihydro-1H-isoindol-5-yl]piperazin-1-yl}methyl)piperidin-1-yl]phenyl}piperidin-1-yl)-1-methyl-1H-indole-3-carbonitrile]
11 | 17 nM | 89% | 363 nM | 84% |  |  | N#Cc1c[nH]c2c(N3CCOC(c4ccc(N5CCC(CN6CCC(n7ccc8c(N9CCC(=O)NC9=O)cccc87)CC6)CC5)cc4)C3)ccc(Cl)c12 (single isomer, unassigned) [Example 117, 4-Chloro-7-[(2S*)-2-{4-[4-({4-[4-(2,4-dioxo-1,3-diazinan-1-yl)-1H-indol-1-yl]piperidin-1-yl}methyl)piperidin-1-yl]phenyl}morpholin-4-yl]-1H-indole-3-carbonitrile]
12 | 7 nM | 98% | 12 nM | 102% |  |  | COc1nc(N2CCN(CC3CCN(c4ccc(C5CCN(c6ccc(Cl)c7c(C#N)c[nH]c67)CC5)cc4)CC3)CC2)cc2c1C(=O)N(C1CCC(=O)NC1=O)C2 (centres unmarked) [Example 34, 4-Chloro-7-(4-{4-[4-({4-[2-(2,6-dioxopiperidin-3-yl)-4-methoxy-3-oxo-2,3-dihydro-1H-pyrrolo[3,4-c]pyridin-6-yl]piperazin-1-yl}methyl)piperidin-1-yl]phenyl}piperidin-1-yl)-1H-indole-3-carbonitrile]
13 | 5 nM | 106% | 22 nM | 94% |  |  | N#Cc1n[nH]c2c(N3CCC[C@@H](c4ccc(N5CCC(CN6CCC(n7ccc8c(N9CCC(=O)NC9=O)cccc87)CC6)CC5)cc4)C3)ccc(F)c12 [Example 134, 7-[(3S)-3-{4-[4-({4-[4-(2,4-Dioxo-1,3-diazinan-1-yl)-1H-indol-1-yl]piperidin-1-yl}methyl)piperidin-1-yl]phenyl}piperidin-1-yl]-4-fluoro-1H-indazole-3-carbonitrile]
14 | 3100 nM |  | > 3000 nM |  | 100% |  | Cc1ccc(C2CCCN(c3ccc(N4CCC(CN5CCN(c6ccc7c(c6)CN(C6CCC(=O)NC6=O)C7=O)CC5)CC4)cc3)C2)c2[nH]cc(C#N)c12 (single isomer, unassigned) [Example 83, 7-[(3S*)-1-{4-[4-({4-[2-(2,6-dioxopiperidin-3-yl)-1-oxo-2,3-dihydro-1H-isoindol-5-yl]piperazin-1-yl}methyl)piperidin-1-yl]phenyl}piperidin-3-yl]-4-methyl-1H-indole-3-carbonitrile]
15 | 9 nM | 97% | 9 nM | 101% |  |  | Cn1c(=O)n(C2CCC(=O)NC2=O)c2cccc(CN3CCN(CC4CCN(c5ccc(C6CCN(c7ccc(Cl)c8c(C#N)c[nH]c78)CC6)cc5)CC4)CC3)c21 (centres unmarked) [Example 70, 4-Chloro-7-[4-(4-{4-[(4-{[1-(2,6-dioxopiperidin-3-yl)-3-methyl-2-oxo-2,3-dihydro-1H-benzimidazol-4-yl]methyl}piperazin-1-yl)methyl]piperidin-1-yl}phenyl)piperidin-1-yl]-1H-indole-3-carbonitrile]
16 | 6 nM | 96% | 5 nM | 101% |  |  | N#Cc1c[nH]c2c(N3CCC(c4ccc(N5CCC(CN6CCN(c7ccc8c(c7)CN(C7CCC(=O)NC7=O)C8=O)CC6)CC5)cc4)CC3)ccc(F)c12 (centres unmarked) [Example 2, 7-(4-{4-[4-({4-[2-(2,6-Dioxopiperidin-3-yl)-1-oxo-2,3-dihydro-1H-isoindol-5-yl]piperazin-1-yl}methyl)piperidin-1-yl]phenyl}piperidin-1-yl)-4-fluoro-1H-indole-3-carbonitrile]
